In patent publication US20220177561A1, “Models and Methods Useful for the Treatment of Serrated Colorectal Cancer” (Sanford Burnham Prebys Medical Discovery Institute, priority 2018, published 2022):

Columns and labels:
WT organoids = assay: Interferon response of WT small intestine organoids (3D culture); format: cell-based, mouse
Protocol: (§1) For generation of small intestine organoids, organoids were collected in ice-cold TrypLE solution (e.g., Life Technologies) to remove Matrigel, then pipetted 5 cycles and incubated 5 min at 37° C. to obtain single-cell suspension. Cells were washed twice in PBS 3% FBS and resuspended at room temperature with PBS with 100 μg/ml DNase I for 10 min before staining with anti-H-2Kb (clone AF6-88.5.5.3; eBioscience). For antigen presentation in MODE-K cells, cells were washed in PBS, trypsinized and wash with warm medium. Then, cells were resuspended and stained with anti-H-2Kk (clone 36-7-5; BioLegend) and anti-H-2Dk (clone 15-5-5; BD Pharmingen). Dead cells were excluded after 7-AAD staining. All flow cytometry experiments were performed on a BD LSRFortessa 14-colors analyzer at the Sanford Burnham Prebys Medical Discovery Institute Shared FACS Facility and flow cytometry data were analyzed using FlowJo software (Tree Star Inc.).
(§2) Intestinal epithelial cell (IEC) isolation was performed as described previously Llado et al., Repression of Intestinal Stem Cell Function and Tumorigenesis through Direct Phosphorylation of β-catenin and Yap by PKCζ. Cell Reports (2015) 10, 740-754, with some modification. […] Adenoma fragments were counted after isolation and a total of 250-500 fragments were mixed with 100 μl of growth factor reduced-Matrigel and plated in 12- or 24-well plates. […]

ZKO organoids = assay: Interferon response of PKCζ-deficient (ZKO) small intestine organoids (3D culture); format: cell-based, mouse; conditions: 3 μM for 24 hours then drug-free culture, qRT-PCR
Protocol: as §1, §2

[1] = system: serrated tumors of DKO^IEC mice; assay: TGF-βR1-specific inhibition experiment in DKO^IEC mice; format: in vivo, mouse
Protocol: For CD8+ T cell depletion (FIG. 4), 10-week-old LKO^IEC mice were injected intraperitoneally with 200 μg of anti-CD8 antibody (clone 2.43) or control IgG twice a week for 5 weeks until they were sacrificed. For the TGF-βR1-specific inhibition experiment, 10-week-old DKO^IEC mice were treated twice a day with a dose of 10 mg of galunisertib (Tauriello et al., 2018) per os for 6 weeks until they were sacrificed. Control mice were treated with vehicle. For checkpoint immunotherapy, either 10-week-old or 13-week-old DKO^IEC mice were injected intraperitoneally with a dose of 10 mg/kg (body mass) of anti-PD-L1 antibody (clone 6E11) twice a week for 3 weeks until they were sacrificed. For the combination therapy of anti-PD-L1 antibody and TGF-βR1-specific inhibitor, 23-week-old DKO^IEC mice were treated twice a day with a dose of 10 mg of galunisertib per os and injected intraperitoneally with a dose of 10 mg/kg (body mass) of anti-PD-L1 antibody twice a week for 3 weeks until they were sacrificed. Anti-PD-L1 antibody was provided by de Sauvage FJ (Genentech).
Organs were isolated, rinsed in ice-cold PBS, fixed in 10% neutral buffered formalin overnight at 4° C., dehydrated, and embedded in paraffin. Sections (5 μm) were stained with hematoxylin and eosin (H&E). For immunohistochemistry, sections were deparaffinized, rehydrated, and then treated for antigen retrieval. After blocking in Protein Block Serum-Free solutions (DAKO), tissues were incubated with primary antibody overnight at 4° C. followed by incubation with biotinylated secondary antibody. Endogenous peroxidase was quenched in 3% H2O2 in water for 10 min at room temperature. Antibodies were visualized with avidin/biotin complex (e.g., Vectastain Elite; Vector Laboratories) using diaminobenzidine as the chromagen. For immunofluorescence, fresh frozen organs were embedded in Tissue-Tek OCT compound (e.g., Sakura) and section of 10 μm were fixed in methanol, washed with PBS and then incubated with the primary antibodies. Washed sections were incubated with Alexa-conjugated secondary antibodies (e.g., Life Technologies) and examined with a Zeiss LSM 710 NLO Confocal Microscope. In situ hybridization for murine Ereg was carried out using RNAscope Multiplex Fluorescent Assay kit (Advanced Cell Diagnostics) following manufacturer's instructions. The probe corresponding to CDS region of murine Ereg (Accession #: NM_007950.2, probe region: 116-1496; Advanced Cell Diagnostics; Cat #: 437981). Cell death was analyzed using the In-Situ Cell Death Detection kit, TMR red (Thermo) for TUNEL. Masson's Trichrome staining was carried out following manufacturer's instructions (Sigma HT15-1KT).
Flow cytometry experiments were performed using fresh small intestinal tissue and organoid preparations. For the analyses of small intestinal tissue, a half part of duodenum, jejunum, and ileum was used for quantitative flow cytometry analysis of immune cell population of lamina propria. Briefly, small intestines were rinsed in cold PBS, minced into small pieces, incubated in HBSS with EDTA (5 mM) and digested with collagenase (0.05 mg/ml) for 30 min at 37° C., followed by a discontinuous Percoll separation method (40 and 75%) to purify immune cells. The cells concentrated at the interface were collected and washed in cold PBS. Red blood cells were removed with lysing buffer (BD Pharm Lyse) and live cells were counted using Trypan blue and then saturated with mouse Fc Block (purified anti-mouse CD16/CD32; 1:50; clone 2.4G2; BD Pharmingen) 30 min at 4° C. before incubating with specific dyed antibodies.
Total RNA from mouse tissues and cultured organoids was extracted using the TRIZOL reagent (e.g., Invitrogen) and the RNeasy Mini Kit (e.g., Qiagen), followed by DNase treatment. […]

[2] = 10-week-old DKO^IEC mice, 10 mg per os twice a day for 6 weeks
[3] = 10-week-old DKO^IEC mice, 6 weeks

| SMILES | expression of interferon-responsive genes Irf7, Oas1a, Isg15, and Cxcl10 (WT organoids; 3 μM for 24 hours then drug-free culture, qRT-PCR) | MHC class I long-chain H-2K^b on the surface (WT organoids; flow cytometry) | expression of interferon-responsive genes Irf7, Oas1a, Isg15, and Cxcl10 (ZKO organoids) | tumor load [1, 2] | tumor number [1, 2] | tumor size [1, 2] | incidence of invasive cancer [1, 3] | progression of SSA/P to the adenocarcinoma stage [1, 3] | proportion of PD-L1^+/CD45^+ cells infiltrating DKO^IEC tumors ([1]; CD45/PD-L1 staining) | collagen deposition ([1]; Masson's trichrome staining of small intestinal tumors) | proportion of Th17 cells in the tumors ([1]; flow cytometry) | proportion of CD8^+ T cells ([1]; flow cytometry, DKO^IEC tumors) | proportion of CD11b^+ myeloid cells ([1]; flow cytometry, DKO^IEC tumors) | proportion of Treg cells ([1]; flow cytometry, DKO^IEC tumors) | expression of TGF-β-responsive genes, such as Angpt12, Cdkn2b, Il11, and Ereg ([1]; qRT-PCR) | stromal phospho-SMAD2 ([1]; staining of small intestinal tumors) |
| --- | --- | --- | --- | --- | --- | --- | --- | --- | --- | --- | --- | --- | --- | --- | --- | --- |
| Nc1ncn([C@H]2C[C@H](O)[C@@H](CO)O2)c(=O)n1 [5-AZA-CdR, 5-aza-2-deoxycytidine] | robustly induced | upregulated | severely abrogated | – | – | – | – | – | – | – | – | – | – | – | – | – |
| Cc1cccc(-c2nn3c(c2-c2ccnc4ccc(C(N)=O)cc24)CCC3)n1 [galunisertib] | – | – | – | did not reduce | did not reduce | did not reduce | especially reduced | suppressed | not affected | inhibition | reduction | did not significantly change | did not significantly change | did not significantly change | reduced expression | inhibition |
